Substitutions are numbered along the chain they refer to.

We go through two compounds from article PMC3679074, “Ligand Binding and Signaling of Dendritic Cell Immunoreceptor (DCIR) Is Modulated by the Glycosylation of the Carbohydrate Recognition Domain” (PLoS ONE, 2013).

Assay [1] deals with T1, DCIR-Fc (Homo sapiens, UniProt Q9UMR7).
T1 construct: gene CLEC4A; extracellular domain fused at C terminus to human IgG1 Fc (tag); produced in CHO or CHO Lec8 cells, protein A purified; 'residues 208-689' [sic]
T1 sequence (Q9UMR7 70-230): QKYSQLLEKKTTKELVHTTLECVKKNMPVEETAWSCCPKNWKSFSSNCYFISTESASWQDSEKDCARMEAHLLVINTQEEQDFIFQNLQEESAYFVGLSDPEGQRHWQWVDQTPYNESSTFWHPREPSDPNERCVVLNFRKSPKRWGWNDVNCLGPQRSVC
The assay is described as follows: ELISA, biotinylated neoglycoconjugate on immobilized Fc protein. The class given is binding.

Assay [2] addresses T2, DCIR-Fc (Homo sapiens, UniProt Q9UMR7, N185Q).
T2 construct: gene CLEC4A; extracellular domain fused at C terminus to human IgG1 Fc (tag); produced in CHO or CHO Lec8 cells, protein A purified; 'residues 208-689' [sic]
T2 sequence (Q9UMR7 70-230 N185Q): T1 sequence (Q9UMR7 70-230) with N116Q
The assay is described as follows: ELISA, soluble Fc protein on coated neoglycoconjugate. In kind it is binding. Conditions: 50 µg/ml Fc protein, room temperature; multivalent PAA conjugate; mutant lacks CRD N-glycan.

As for `CC(=O)N[C@H]1C(O)O[C@H](CO)[C@@H](O[C@@H]2O[C@@H](C)[C@@H](O)[C@@H](O)[C@@H]2O)[C@@H]1O[C@@H]1O[C@H](CO)[C@H](O)[C@H](O)[C@H]1O[C@@H]1O[C@@H](C)[C@@H](O)[C@@H](O)[C@@H]1O` (stereo partly drawn) [Lewis^b], on DCIR-Fc [1] (pH 7.4, Ca2+/Mg2+, room temperature, labelled compound (multivalent biotinylated PAA conjugate), EGTA-sensitive), the “ELISA, biotinylated neoglycoconjugate on immobilized Fc protein” value is “We observed CLR-specific binding of Man3 and Lewis^b to immobilized DCIR-Fc”. Moreover, the “ELISA, soluble Fc protein on coated neoglycoconjugate” value on DCIR-Fc [2] was “strongly interacted with immobilized Lewis^b and Man3”.
As for `CC(=O)N[C@H]1C(O)O[C@H](CO)[C@@H](O[C@@H]2O[C@@H](C)[C@@H](O)[C@@H](O)[C@@H]2O)[C@@H]1O[C@@H]1O[C@H](CO)[C@H](O)[C@H](OS(=O)(=O)O)[C@H]1O` (stereo partly drawn) [sulfo-Lewis^a], at DCIR-Fc [1] (labelled compound (multivalent biotinylated PAA conjugate, 5 µg/ml), EGTA control subtracted), the “ELISA, biotinylated neoglycoconjugate on immobilized Fc protein” value is “immobilized glycosylated DCIR-Fc could interact with sulfo-Lewis^a”.
